“Also recorded” adds a separate entry of the source.
How the values were obtained:
rice leaf segments = experiment: Dark-induced leaf senescence; parameters: species or system O. sativa, var. Shiokari; conditions: for transcript level of senescence-associated gene Osl20 / transcript level of senescence-associated gene Osl295: after 5 d of treatment; for change in color of leaf segments, earlier than the control / chlorophyll content of leaf segments / ion leakage of leaf segments compared with the control: dark; for change in color of leaf segments, earlier than the control: 30 °C, change on the third day after treatment; for chlorophyll content of leaf segments: on the third day; for ion leakage of leaf segments compared with the control: sixth and seventh day, no difference in the first 5 d
Procedure: One-week-old rice (O. sativa, var. Shiokari) seedlings were established as mentioned above. Uniform seedlings were transferred to 50 ml tubes containing half-strength Hoagland nutrient solution for 7 d and grown in an incubator under white fluorescent light (130–180 μmol m^−2 s^−1) with 16 h/8 h (L/D) at 28 °C for 1 week. Leaf segments of 2 cm were cut from middle part of third leaves of rice plants. Each segment was put in a well (in 24-well plates) containing 2 ml of 2.5 mM MES buffer with 0.05% Tween-20, and incubated at 30 °C in the dark for 7 d. After application of MPs, color change, chlorophyll content, ion leakage, and gene expression were monitored daily for 7 d.

Arabidopsis seedlings = experiment: Arabidopsis hypocotyl elongation assay; type: in vivo; conditions: 1.0 μM, continuous red light
Procedure: Sterilized Arabidopsis seeds were sown on half-strength MS (with 0.5% sucrose+1% agar, 0.5 g l^−1 MES, pH 5.7) plates supplemented with MPs or GR24 (at 1.0 μM). Plates were stored at 4 °C in darkness for 3 d. To initiate germination, plates were exposed to continuous white light for 24 h, then transferred to continuous monochromatic red light (20 μmol m^−2 s^−1, 22 °C) conditions for another 4 d. For hypocotyl length measurement, at least 30 seedlings were measured using the freely available ImageJ software (http://rsbweb.nih.gov/ij/) after taking digital photographs. A monochromatic red light source was applied as described previously ([Wu and Yang, 2010]). Light flow rates were measured using a Li250 quantum photometer (Li-Cor, Lincoln, NE, USA).

ShHTL7 = target: T1, ShHTL7 (Striga hermonthica, UniProt A0A0M3PNA2); experiment: Intrinsic tryptophan fluorescence assay, ShHTL7; type: binding
T1 sequence (A0A0M3PNA2 1-271): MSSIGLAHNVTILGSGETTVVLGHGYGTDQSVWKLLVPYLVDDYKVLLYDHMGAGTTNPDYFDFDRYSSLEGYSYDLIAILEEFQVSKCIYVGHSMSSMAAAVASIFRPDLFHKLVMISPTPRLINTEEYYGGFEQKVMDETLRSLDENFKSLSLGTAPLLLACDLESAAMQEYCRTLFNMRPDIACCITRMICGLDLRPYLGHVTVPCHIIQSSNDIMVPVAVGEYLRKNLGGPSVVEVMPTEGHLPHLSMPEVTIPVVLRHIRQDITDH
Excerpt: Striga hermonthica ShHTL7 cDNA was used, GenBank accession KR013127, kindly provided by Tsuyoshi Ota, The University of Tokyo, Japan. Arabidopsis D14 (AtD14) cDNA, GenBank accession AY097402, was synthesized and cloned into pUC57 (GenScript). ShHTL7 and OsD14 cDNAs were amplified by RT-PCR using the primers shown in Supplementary Table S2, digested with BamHI and XhoI, and ligated into BamHI/XhoI-digested pGEX-6P-1 expression vector (GE Healthcare). […] The plasmids were then transformed into E. coli BL21 (DE3) cells. The cells were grown in LB broth containing ampicillin ([…]), incubated at 37 °C until OD600 of 0.6 and induced with 0.1 mM isopropyl-β-D-thiogalactopyranoside at 16 °C for 16 h. Harvested cells were resuspended in lysis buffer: 50 mM Tris–HCl (pH 8.0), 200 mM NaCl, 0.5% Tween-20 and 2 mM dithiothreitol (DTT). After sonication on ice for 10 min, the lysate was centrifuged at 75 000 g for 30 min at 4 °C. Supernatant was allowed to bind to glutathione–sepharose beads (GE Healthcare) for 2 h at 4 °C, washed 3 times with buffer (50 mM Tris-HCl (pH 8.0), 200 mM NaCl, 2 mM DTT), and eluted by cleaving the GST moiety with PreScission™ Protease (GE Healthcare) at 4 °C overnight. […]

P. ramosa seeds = experiment: P. ramosa seed germination bioassay; type: in vivo, Phelipanche ramosa; conditions: 1.0 μM
Procedure: Parasitic weed seeds’ (S. hermonthica and P. ramosa) germination activity was studied as described previously ([Jamil et al., 2012]). Six pre-conditioned seed discs were placed in a 90 mm Petri dish containing a filter paper ring wetted with 0.9 ml sterile MilliQ water. Then 50 μl of SL analog solution (10^–5–10^–12 M) was applied on each of the six discs, for each concentration. GR24 solutions with equal concentrations and sterile MilliQ water were included as a positive and negative control, respectively. After application, seeds of S. hermonthica and P. ramosa were incubated in dark at 30 °C for 2 d and at 25 °C for 4 d, respectively. Germination (seeds with radicle emerging through the seed coat) was scored under a binocular microscope, and germination rate (%) was calculated.

[1] = system: artificially infested soil and pearl millet as a host; experiment: Trial in Burkina Faso, boxes with artificially infested soil; type: in vivo; conditions: 1 × 1 m^2 wooden boxes, to be published
Excerpt: This activity was around 17 times weaker than that of GR24, pointing to MP1 as a suitable candidate for the suicidal germination approach. Very recently, we have evaluated the activity of MP1 in a trial conducted in Burkina Faso, in which we used 1 × 1 m^2 wooden boxes filled with artificially infested soil and pearl millet as a host. […] Apart from these three compounds, we observed lower germination activity with P. ramosa seeds than with those of S. hermonthica.

rice d3 mutant = experiment: Rice micro tillering bioassay, d3 mutant; type: in vivo; conditions: 2.5 μM, hydroponic culture; average of four tillers per plant in treated and untreated samples
Procedure: Rice seeds (WT, d3, d10) were surface-sterilized by washing with 70% ethanol for 1 min and then with 2.5% sodium hypochlorite for 15 min. Seeds were then rinsed thoroughly with sterile MilliQ water and incubated in water for 2 d at 30 °C in the dark. Pre-germinated seeds were transferred to filter papers containing half-strength MS medium in 90 mm Petri dishes and incubated at 30 °C under fluorescent white light (130–180 μmol m^−2 s^−1) for 1 week. Seven-day-old seedlings were transferred to 50 ml falcon tubes (one seedling per tube) containing modified half-strength Hoagland nutrient solution and grown in greenhouse. Plants were treated with MPs at 2.5 μM to 2.5 × 10^–7 μM, using GR24 as positive control. The compounds were applied six times, twice a week. Number of tillers per plant, plant height and fresh biomass were measured at final harvest.

Row | SMILES | transcript level of senescence-associated gene Osl20 (rice leaf segments) | transcript level of senescence-associated gene Osl295 (rice leaf segments) | change in color of leaf segments, earlier than the control (rice leaf segments) | chlorophyll content of leaf segments (rice leaf segments) | ion leakage of leaf segments compared with the control (rice leaf segments) | inhibition of hypocotyl growth (Arabidopsis seedlings) | Kd (ShHTL7) | P. ramosa germination activity (P. ramosa seeds) | germination activity in soil box trial [1] | high-tillering phenotype of SL-insensitive d3 mutant (rice d3 mutant)
1 | COC(=O)/C(=C/OC1C=C(C)C(=O)O1)c1ccccc1 (stereo not shown) [MP3, (E)-methyl 3-(4-methyl-5-oxo-2,5-dihydrofuran-2-yloxy)-2-phenylacrylate] | striking increase in their transcripts, which was more pronounced | striking increase in their transcripts, which was more pronounced | about 2 d | clear reduction | striking increase | – | – | – | – | –
2 | COC(=O)/C(=C/OC1C=C(C)C(=O)O1)c1ccc(Cl)cc1 (stereo not shown) [MP7] | – | – | – | – | – | stronger inhibitory effect than GR24 | 1150 ± 310 nM | – | – | –
3 | COC(=O)/C(=C/OC1C=C(C)C(=O)O1)c1ccc([N+](=O)[O-])cc1 (stereo not shown) [MP1, (E)-methyl 3-(4-methyl-5-oxo-2,5-dihydrofuran-2-yloxy)-2-(4-nitrophenyl)acrylate] | – | – | – | – | – | – | – | much higher activity; also recorded: quite similar to that of GR24 | significantly higher germination activity than GR24 | –
4 | CC1=CC(OC=C2C(=O)OC3c4ccccc4CC23)OC1=O (stereo not shown) [GR24, reference compound] | striking increase | striking increase | about 2 d | clear reduction | striking increase | – | 440 ± 210 nM | – | – | neither MPs nor GR24 could restore the high-tillering phenotype
